The values that follow come from publication PMC4157654, “Orthogonal functionalisation of α-helix mimetics” (Organic & Biomolecular Chemistry, 2014).

SMILES strings stand for the structures.

For one experiment, the target named is T1, p53/hDM2 interaction (Homo sapiens, UniProt Q00987).
T1 construct: hDM2 17-126 was diluted into buffer; made in house
In words: Fluorescence anisotropy competition assay, p53/hDM2. Type of experiment: binding. The conditions noted are these: hDM2 154 nM, FITC-p53 54.5 nM, phosphate buffer pH 7.5, 200 mM NaCl, 0.02 mg/ml BSA. As to the method: The ability of the trimers to inhibit the p53/hDM2 interaction was then investigated using a fluorescence anisotropy competition assay (Fig. 3a). Briefly, a fluorescein-labelled p53 peptide is initially bound to hDM2 and displaced by increasing concentrations of inhibitor leading to a measurable decrease in anisotropy from which IC50 values can be determined, Table 1.
(§1) Fig. 3 Fluorescence anisotropy binding assays in phosphate buffer pH 7.5, 200 mM NaCl, 0.02 mg ml^–1 BSA. (a) p53/hDM2 competition assay hDM2 is fixed as 154 nM and FITC-p53 is at a concentration of 54.5 nM. (b) Direct binding assay of trimer 5 binding to hDM2 or Mcl-1. Compound 5 is fixed at 50 nM.
Figure S6 – Fluorescence anisotropy competition assay testing the inhibition of the trimers against the p53/hDM2 interaction; unfunctionalised trimer 1 and acid, ethylene glycol and coumarin-functionalised trimers 2, 3 and 4. Performed in phosphate buffer pH 7.5, 200 mM NaCl, 0.02 mg/ml BSA. h DM2 is fixed as 154 nM and FITC-p53 is at a concentration of 54.5 nM. […]
On the technique in general: In fluorescence polarisation assays a small probe gives low polarisation when free and higher when bound to something large.

Another experiment has as its target T2, Mcl-1/NOXA-B interaction (Homo sapiens, UniProt Q07820).
T2 construct: The pet28a His-SUMO Mcl-1 (172-327) construct was over-expressed; His (N, cleaved yes); SUMO (N, cleaved yes); made in house; host or cells: E. coli Rosetta 2
In words: Fluorescence anisotropy competition assay, Mcl-1/NOXA-B. Type of experiment: binding. The conditions noted are these: Mcl-1 150 nM, FITC-NOXA-B 50 nM, phosphate buffer pH 7.5. As to the method: Determination of the binding of FITC-NOXA-B to Mcl-1
The procedure followed was adapted from our previous paper on O-alkylated aromatic oligoamides.1 […]
Briefly: Mcl-1 was serially diluted (446 pM – 5 μM) into a solution of FITC-NOXA-B (25 nM) (40 […]
mM Sodium phosphate buffer pH 7.54, 200 mM NaCl, 0.02 mg/ml of bovine serum albumin) – the […]
total volume of each well was 100 μL, the plates were allowed to incubate at room temperature for 45 […]
minutes. Each experiment was run in triplicate and the fluorescence anisotropy measured using a […]
Perkin Elmer EnVisionTM 2103 MultiLabel plate reader, with excitation at 480 nm and emission at […]
535 nm ([…] bandwidth) and the intensity (Eq. 1) was calculated for each point. This was used to […]
calculate anisotropy (Eq. 2) and plotted to a sigmoidal fit in Origin 7 to determine the minimum and […]
maximum anisotropies (rmin and rmax). Using equation 3, the data for the anisotropy was converted to […]
fraction bound and multiplied by the FITC-NOXA-B concentration then fitted in origin 7 (Eq. 4) to […]
From a plot of intensity (Eq. 1) against […]
concentration of protein λ was calculated to be 1. […]
{(k + x + [FL] - {(k + x + [FL]2 - 4x[FL]} r = anisotropy, I = total intensity, P = perpendicular intensity, S = parallel intensity, Lb = fraction ligand bound, λ = Ibound/Iunbound = 1, [FL] = concentration of fluorescent ligand, k1 = Kd , y = Lb* FITC- […]
NOXA-B and x = [added titrant], G is an instrument factor set to 1.
Figure S4 - Fluorescence anisotropy titration assays for the addition of FITC-NOXA-B to a constant […]
concentration of Mcl-1. Performed in phosphate buffer pH 7.5, 200 mM NaCl, 0.02 mg/ml BSA.
In order to set up displacement assay conditions Mcl-1 and FITC-labelled NOXA-B concentrations […]
were fixed and the tracer peptide was displaced with unlabelled NOXA-B.
Figure S5 – Fluorescence anisotropy competition assay testing the inhibition of unlabelled NOXA-B […]
against the Mcl-1/NOXA-B interaction. Performed in phosphate buffer pH 7.5, 200 mM NaCl, 0.02 […]
mg/ml BSA. Mcl-1 is fixed as 150 nM and FITC-NOXA-B is at a concentration of 50 nM. […]
Figure S7 – Fluorescence anisotropy competition assay testing the inhibition of the trimers against the Mcl-1/NOXA-B interaction; unfunctionalised trimer 1 and acid, ethylene glycol and coumarin- […]
BSA. Mcl-1 is fixed as 150 nM and FITC-NOXA-B is at a concentration of 50 nM.

The target in the next experiment is T3, Bcl-xL/BAK interaction (Homo sapiens, UniProt Q07817).
T3 construct: made in house
As to the kind of experiment: Fluorescence anisotropy competition assay, Bcl-xL/BAK. Type of experiment: binding. As to conditions: Bcl-xL 131 nM, BODIPY-BAK 43 nM, phosphate buffer pH 7.5. As to the method:
Figure S8 – Fluorescence anisotropy competition assay testing the inhibition of the trimers against the Bcl-x L/BAK interaction; unfunctionalised trimer 1 and acid, ethylene glycol and coumarin-functionalised trimers 2, 3 and 4. Performed in phosphate buffer pH 7.5, 200 mM NaCl, 0.02 mg/ml
BSA. Bcl-x L is fixed as 131 nM and BODIPY-BAK is at a concentration of 43 nM.
The observed increase in anisotropy is likely to be the result of aggregation of the trimer to the BAK […]
tracer and Bcl-x L complex. […]
In all experiments the G factor, or ratio between the efficiency of the S(ame) and P(erpendicular) channels was set to 1. […]

Experiment [1] addresses T4, hDM2 (Homo sapiens, UniProt Q00987).
T4 construct: hDM2 17-126 was diluted into buffer; made in house
As to the kind of experiment: Fluorescence anisotropy direct binding assay, hDM2. The conditions noted are these: trimer fixed at 50 nM, read-out: Kd obtained through direct titration, hDM2. As to the method: as §1
The fluorescently tagged trimers 4 and 5 were designed for use in direct binding experiments. We observed that upon ‘click’ reaction, the fluorescence of the coumarin group in trimer 4 was quenched (Fig. S14 ^†). This trimer was therefore tested in the fluorescence anisotropy competition assays as described above (Fig. S7 and S8 ^†). […] Direct binding experiments were performed using both fluorescence anisotropy (Fig. 3b) and microscale thermophoresis[52] (Fig. S12 ^†). […] The same fluorescence anisotropy experiment was then carried out for Mcl-1 and Bcl-xL. […]
Figure S8 – Fluorescence anisotropy competition assay testing the inhibition of the trimers against the Bcl-x L/BAK interaction; unfunctionalised trimer 1 and acid, ethylene glycol and coumarin-functionalised trimers 2, 3 and 4. […]
Direct Binding Assay Development hDM2 17-126 was diluted into buffer across the 24 wells from 400 μM to 36 nM. […] Ligand bound was calculated from Eq. 3 using λ =
2.06. K d was calculated from Eq. 4. […]

Experiment [2] concerns the target T4, hDM2. In words: Microscale thermophoresis direct binding to hDM2. As to conditions: trimer fixed at 50 nM, phosphate buffer pH 7.5. As to the method: (§2) The fluorescently tagged trimers 4 and 5 were designed for use in direct binding experiments. We observed that upon ‘click’ reaction, the fluorescence of the coumarin group in trimer 4 was quenched (Fig. S14 ^†). This trimer was therefore tested in the fluorescence anisotropy competition assays as described above (Fig. S7 and S8 ^†). […] Direct binding experiments were performed using both fluorescence anisotropy (Fig. 3b) and microscale thermophoresis[52] (Fig. S12 ^†). […] The same fluorescence anisotropy experiment was then carried out for Mcl-1 and Bcl-xL. […] The absence of selectivity between hDM2 and Mcl-1 in this instance may arise as a consequence of non-specific interactions imparted by the fluorescein group – we note that K d is lower for 5 than the IC50's observed for both 2 and 3 which would support this hypothesis.
Thermophoresis Direct Binding to h DM2
Figure S12 – Direct binding of Compound 5 to hDM2 measured using thermophoresis at a fixed […]
concentration of 5 of 50 nM. […] Performed in phosphate buffer pH 7.5, 200 mM NaCl, […]
The larger errors at lower protein concentration are possibly the result of non-specific binding of the fluorescent trimer to the thermophoresis capillaries.
Fluorescence and Absorbance Characterisation of Trimers 4 and 5 […]
(1 picture or pasted object on this page, not shown here)

The target of the next experiment is T5, Mcl-1 (Homo sapiens, UniProt Q07820).
T5 construct: The pet28a His-SUMO Mcl-1 (172-327) construct was over-expressed; His (N, cleaved yes); SUMO (N, cleaved yes); made in house; host or cells: E. coli Rosetta 2
In words: Fluorescence anisotropy direct binding assay, Mcl-1. The conditions noted are these: trimer fixed at 50 nM, read-out: Kd obtained through direct titration, Mcl-1. As to the method:
as §1, §2
Figure S9 - Change of intensity during addition of hDM2 used to calculate λ.
Mcl-1172-327 was diluted into buffer across the 24 wells from 200 μM to 18 nM. […] Ligand bound was calculated from Eq. 3 using λ =
2.31. K d was calculated from Eq. 4. […]

Another experiment concerns the target T6, Bcl-xL (Homo sapiens, UniProt Q07817).
T6 construct: made in house
As to the kind of experiment: Fluorescence anisotropy direct binding assay, Bcl-xL. As to conditions: trimer fixed at 50 nM. As to the method:
as §2
Figure S10 - Change of intensity during addition of Mcl-1 used to calculate λ.
Anisotropy Direct Binding to Bcl-x L
Figure S11 – Anisotropy direct binding of Compound 5 to Bcl-x L at a fixed concentration of 5 of 50
nM. Performed in phosphate buffer pH 7.5, 200 mM NaCl, 0.02 mg/ml BSA. […]

In general, IC50 refers to the concentration at which inhibition is half-maximal. As to `CC(C)CN(C(=O)c1ccc(N(Cc2cccc3ccccc23)C(=O)c2ccc(NCc3ccccc3)cc2)cc1)c1ccc(C(=O)NCC(=O)O)cc1` [Trimer 1], the IC50 on p53/hDM2 interaction is 12.3 ± 0.4 µM; at Mcl-1/NOXA-B interaction it was greater than 70 µM. For the same molecule, the “IC50 Bcl-xL/BAK” value on Bcl-xL/BAK interaction is listed as “No inhibition”.

As for `CC(C)CN(C(=O)c1ccc(N(Cc2cccc3ccccc23)C(=O)c2ccc(NCc3ccccc3)cc2)c(OCc2cn(CC(=O)O)nn2)c1)c1ccc(C(=O)NCC(=O)O)cc1` [Trimer 2], the IC50 was 40 ± 5 µM on p53/hDM2 interaction and greater than 70 µM at Mcl-1/NOXA-B interaction. At Bcl-xL/BAK interaction, the “IC50 Bcl-xL/BAK” value is reported as “No inhibition”.

Take `CC(C)CN(C(=O)c1ccc(N(Cc2cccc3ccccc23)C(=O)c2ccc(NCc3ccccc3)cc2)c(OCc2cn(CCOCCOCCOCCO)nn2)c1)c1ccc(C(=O)NCC(=O)O)cc1` [Trimer 3]: the IC50 was 42 ± 6 µM on p53/hDM2 interaction and greater than 70 µM at Mcl-1/NOXA-B interaction. Further, on Bcl-xL/BAK interaction, the “IC50 Bcl-xL/BAK” value is listed as “No inhibition”.

As for `CC(C)CN(C(=O)c1ccc(N(Cc2cccc3ccccc23)C(=O)c2ccc(NCc3ccccc3)cc2)c(OCc2cn(CCCNC(=O)c3cc4ccccc4oc3=O)nn2)c1)c1ccc(C(=O)NCC(=O)O)cc1` [Trimer 4], the IC50 at p53/hDM2 interaction was 20.3 ± 0.3 µM; on Mcl-1/NOXA-B interaction, greater than 70 µM. The “IC50 Bcl-xL/BAK” value at Bcl-xL/BAK interaction is listed as “No inhibition”.

As for `CC(C)CN(C(=O)c1ccc(N(Cc2cccc3ccccc23)C(=O)c2ccc(NCc3ccccc3)cc2)c(OCc2cn(CCCNC(=S)Nc3ccc(-c4c5ccc(=O)cc-5oc5cc(O)ccc45)c(C(=O)O)c3)nn2)c1)c1ccc(C(=O)NCC(=O)O)cc1` [Trimer 5], the Kd on hDM2 [1] turned out to be 20 ± 6 µM; on hDM2 [2], 11 ± 2 µM; at Mcl-1 it was 13 ± 4 µM. For the same molecule, the “Direct binding to Bcl-xL” value at Bcl-xL is listed as “no binding was observed”.
